# Read-outs that look alike come from different tables or passages of the source.
# Tests used:
# A549 cells = experiment: Cell counting (proliferation) assay in A549 cells; assay type: cell-based, human; parameters: IC10 Estimate, dataset 2 - Fig 7a, log 10 scale Y: unit not given here; details: for IC50 / IC90: Homo sapiens
# Experimental: (§1) A549 and H2030 cells cultured in RPMI 1640 containing 5% FBS in 12 well-plates at 20% confluence were treated with Oxy210 for 6 days and then trypsinized, spun down and resuspended in fresh medium. For the Carboplatin (CP) and Oxy210 co-treatment experiments, A549 cells cultured in RPMI 1640 containing 2% FBS in 12 well-plates at 20% confluence were treated with CP at different concentrations in the presence or absence of Oxy210 for 6 days. For the TGFβ-induced drug resistance assay, A549 cells cultured in RPMI 1640 containing 2% FBS in 12 well-plates at 10% confluence were pre-treated with TGFβ1 alone or together with Oxy210 for 3 days, and then treated with 20 μM CP for 4 days. An aliquot of cell suspension was applied to a hemocytometer and the cells were then counted under a light microscope.
# (§2) Statistical analyses were performed using the StatView 5 program (SAS Institute, Cary, NC, USA). All p values were calculated using ANOVA and Fisher’s projected least significant difference (PLSD) significance test. A value of p < 0.05 was considered significant. The IC 50 dose-response curves shown in Figure 4b and Figure 7a–c were modeled using a five-parameter logistic model. This model allows for asymmetric curves and automatically estimates the mean maximum and minimum response. Based on this model, IC 50 values were estimated corresponding to the dose halfway between min and max response. Models of dose versus response and dose versus log response were also evaluated (see Supplementary Materials). The R square statistic was computed as a measure of model fit.
# (§3) Figure 7 Inhibition of NSCLC cell proliferation by Oxy210. A549 (a), (c) and H2030 (b) cells were treated with the test agents as indicated in RPMI 1640 containing 5% FBS for 5 days and then were trypsinized and counted as described in Methods and Materials section. Data from a representative experiment are reported as the mean of triplicate determinations ± SD (* p < 0.05 vs. control; ** p < 0.01 vs. control).
# Liver X Receptor (LXR) [1] = assay type: cell-based; details: mouse
# H2030 cells = experiment: Cell counting (proliferation) assay in H2030 cells; assay type: cell-based, human; details: for IC50 / IC90: Homo sapiens, NCI-H2030
# Experimental: as §1, §2, §3
# [2] = tested on: Gli1 transcriptional activity; experiment: Gli responsive luciferase reporter in NIH3T3-E1 cells over expressing Gli1; assay type: cell-based, mouse; details: 10 μM, 72 hrs
# Experimental: NIH3T3-E1 cells cultured in 24 well-plates at 90% confluence were transiently transfected with 0.1 μg of Smad response-element reporter (SBE-Luciferase) plasmid (Qiagen), or with 0.1 μg of Gli response-element reporter (pGL3b-8xGli-Luciferase) plasmid, and 10 ng of pSV40-Renilla-Luciferase plasmid (Promega, Madison, WI, USA) with or without co-transfection with 10ng of Gli1 overexpression vector, pSRα-Gli1 using a Lipofectamine LTX Plus transfection reagent, as previously described. Sufu-/- cells cultured in 24 well-plates at 90% confluence were transiently transfected with 0.1μg of pGL3b-8xGli-Luciferase plasmid, and 10 ng of pSV40-Renilla-Luciferase plasmid. 6 hrs after transfection, cells were treated with test agents for 72 h. […] Then the firefly and Renilla luciferase activities were measured using a dual luciferase kit (Promega) and a GloMax-96 Microplate Luminometer (Promega) or a plate reader-SpectraMax iD3 (Molecular Devices, San Jose, CA, USA). […]
# Figure 5 Oxy210 acts downstream of Smo. […] After 72 h, RNA was extracted and analyzed by Q-RT-PCR for the expression of Hh target genes Gli1 and Hip, normalized to Oaz1 expression. […] Luciferase activity was measured and normalized to the Renilla luciferase activity. […]
# TβRI = experiment: Smad responsive luciferase reporter (CAGA12-Luc) in R1BL17 cells transfected with TGFβRI (WT or TD mutant); assay type: cell-based, mink; details: 20 h
# Liver X Receptor (LXR) [3] = assay type: cell-based, human
smiles,measurement,setting,value
"C[C@]12CC[C@H]3[C@@H](CC=C4C[C@@H](O)CC[C@@]43C)[C@@H]1CC[C@@H]2[C@](C)(O)CCc1cccnc1 [Oxy210, (3S,8S,9S,10R,13S,14S,17S)-17-((R)-2-hydroxy-4-(pyridin-3-yl)butan-2-yl)-10,13-dimethyl-2,3,4,7,8,9,10,11,12,13,14,15,16,17-tetradecahydro-1H-cyclopenta[a]phenanthren-3-ol]",fold reduction (left shift) of the IC50 of CP,"A549 cells; A549 cells, 2 μM Oxy210",about four-fold
same,anti-proliferation potential of CP when combined,"A549 cells; A549 cells, non-cytotoxic concentrations of CP (1 to 10 μM)",significantly improved
same,"IC10 Estimate, dataset 2 - Fig 7a, log 10 scale Y","A549 cells; A549 cells/well, log 10 scale Y",2.61
same,"IC10 Estimate, dataset 2 - Fig 7a, original scale Y","A549 cells; A549 cells/well, original scale Y",1.92 µM
same,IC50,"A549 cells; A549 cells, 5% FBS, ± SE, read-out: IC50, anti-proliferative effect (cell counting)",2.63 ± 1.01 µM
same,IC50,"A549 cells; A549 cells/well, log 10 scale Y, read-out: IC 50 Estimate, dataset 2 - Fig 7a, log 10 scale Y (converted)",4.23 µM
same,IC90,"A549 cells; A549 cells/well, log 10 scale Y, read-out: IC90 Estimate, dataset 2 - Fig 7a, log 10 scale Y (converted)",6.87 µM
same,IC90,"A549 cells; A549 cells/well, original scale Y, read-out: IC90 Estimate, dataset 2 - Fig 7a, original scale Y",4.18 µM
same,ABCA1 expression,Liver X Receptor (LXR) [1],absence of ABCA1 expression
same,"IC10 Estimate, dataset 3 - Fig 7b, log 10 scale Y","H2030 cells; H2030 cells/well, log 10 scale Y",1.89
same,"IC10 Estimate, dataset 3 - Fig 7b, original scale Y","H2030 cells; H2030 cells/well, original scale Y",0.42 µM
same,IC50,"H2030 cells; H2030 cells, 5% FBS, ± SE, read-out: IC50, anti-proliferative effect (cell counting)",1.66 ± 0.25 µM
same,IC50,"H2030 cells; H2030 cells/well, log 10 scale Y, read-out: IC 50 Estimate, dataset 3 - Fig 7b, log 10 scale Y (converted)",2.52 µM
same,IC90,"H2030 cells; H2030 cells/well, log 10 scale Y, read-out: IC90 Estimate, dataset 3 - Fig 7b, log 10 scale Y (converted)",3.37 µM
same,IC90,"H2030 cells; H2030 cells/well, original scale Y, read-out: IC90 Estimate, dataset 3 - Fig 7b, original scale Y",4.09 µM
same,transcriptional activity of Gli responsive luciferase reporter trans-activated by exogenous Gli1,[2],significantly inhibited
same,activity of Smad responsive reporter stimulated by TGFβ-activated RI or ligand independent RI_TD,TβRI,significantly inhibited
same,induced expression of SREB1c,Liver X Receptor (LXR) [3],lack of induced expression

# Source: paper PMC6829886, “Inhibition of Non-Small Cell Lung Cancer Cells by Oxy210, an Oxysterol-Derivative that Antagonizes TGFβ and Hedgehog Signaling” (Cells, 2019)
